Key:
[1] = biological target: T1, GST-tagged Tankyrase-2 (873-1166 aa) (Homo sapiens, UniProt Q9H2K2); test: Tankyrase 2 autoparsylation assay (HTRF enzyme assay); format: biochemical
T1 construct: GST-tagged Tankyrase-2 (873-1166 aa)
Method in brief: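 ~250 nM GST-tagged enzyme with 5 μM biotin-NAD in HEPES/Mg/DTT buffer pH 7.7, 10 compound concentrations, 90 min at 30 °C; EDTA stop. Eu-anti-GST/streptavidin-Xlent HTRF read (665/615 ratio) after 1 h RT. IC50 relative to inhibitor-free reaction and 5 μM XAV-939 as zero.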

tankyrase 1/2 = test: Cellular inhibition of Tankyrase: increase of Axin2 level in DLD1 cells (Luminex); format: cell-based; conditions: 24 hours, read-out: EC50 tankyrase 1/2 (cell assay)
Method in brief: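 DLD1 colon carcinoma cells treated 24 h with seven-step serial dilutions in triplicate (0.3% DMSO final). Axin2 in cleared lysates captured on anti-Axin2 beads, detected with polyclonal anti-Axin2 plus PE secondary, and quantified by Luminex. EC50 from data normalized to solvent control; IWR-2 (3E-06 M) marks maximal Axin2 increase.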

[2] = biological target: T2, GST-tagged Tnks-1 (1023-1327 aa) (Homo sapiens, UniProt O95271); test: TNKS1 activity ELISA (autoparsylation assay); format: biochemical
T2 construct: GST-tagged Tnks-1 (1023-1327 aa, prepared in-house); made in house
T2 sequence (O95271 1023-1327): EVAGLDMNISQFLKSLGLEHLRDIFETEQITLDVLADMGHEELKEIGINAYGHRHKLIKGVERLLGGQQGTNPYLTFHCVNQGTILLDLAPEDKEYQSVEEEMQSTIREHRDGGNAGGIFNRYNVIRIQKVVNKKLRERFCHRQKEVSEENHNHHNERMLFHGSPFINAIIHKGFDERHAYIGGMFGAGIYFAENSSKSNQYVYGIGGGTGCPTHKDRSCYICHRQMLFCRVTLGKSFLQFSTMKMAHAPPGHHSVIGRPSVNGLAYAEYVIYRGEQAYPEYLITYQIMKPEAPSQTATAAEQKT
Experimental: Description of the TNKS1 and TNKS2 ELISA Assay
Biochemical Activity Testing of TNKS 1 and 2: Activity ELISA (Autoparsylation Assay)
For analysis of autoparsylation activity of TNKS 1 and 2 an activity ELISA is performed: In the first step GST tagged TNKS is captured on a Glutathione coated plate. Then the activity assay with biotinylated NAD is performed in the absence/presence of the compounds. During the enzymatic reaction GST tagged TNKS transfers biotinylated ADP-ribose to itself from biotinylated NAD as co-substrate. For the detection streptavidin-HRP conjugate is added that binds to the biotinylated TNKS and is thereby captured to the plates. The amount of biotinylated resp. autoparsylated TNKS is detected with a luminescence substrate for HRP. The level of the luminescence signal correlates directly with the amount of autoparsylated TNKS and therefore with activity of TNKS.
The activity ELISA is performed in 384 well Glutathione coated microtiter plates (Express capture Glutathione coated plate, Biocat, Heidelberg, Germany). The plates are pre-equilibrated with PBS. Then the plates are incubated with 50 μl 20 ng/well GST-tagged Tnks-1 (1023-1327 aa, prepared in-house), respectively GST-tagged Tnks-2 (873-1166 aa, prepared in-house) in assay buffer (50 mM HEPES, 4 mM Mg-chloride, 0.05% Pluronic F-68, 2 mM DTT, pH 7.7) overnight at 4° C. The plates are washed 3 times with PBS-Tween-20. The wells are blocked by incubation at room temperature for 20 minutes with 50 μl blocking buffer (PBS, 0.05% Tween-20, 0.5% BSA). Afterwards the plates are washed 3 times with PBS-Tween-20. The enzymatic reaction is performed in 50 μl reaction solution (50 mM HEPES, 4 mM Mg-chloride, 0.05% Pluronic F-68, 1.4 mM DTT, 0.5% DMSO, pH 7.7) with 10 μM bio-NAD (Biolog, Life science Inst., Bremen, Germany) as co-substrate in the absence or presence of the test compound (10 dilution concentrations) for 1 hour at 30° C. The reaction is stopped by 3 times washing with PBS-Tween-20. For the detection 50 μl of 20 ng/μl Streptavidin, HRP conjugate (MoBiTec, Göttingen, Germany) in PBS/0.05% Tween-20/0.01% BSA are added and the plates are incubated for 30 minutes at room temperature. After three times washing with PBS-Tween-20 50 μl of SuperSignal ELISA Femto Maximum sensitivity substrate solution (ThermoFisherScientific (Pierce), Bonn, Germany) are added. Following a 1 minute incubation at room temperature luminescence signals are measured with an Envision multimode reader (Perkin Elmer LAS Germany GmbH) at 700 nm. The full value used is the inhibitor-free reaction. The pharmacological zero value used is XAV-939 (Tocris) in a final concentration of 5 μM. The inhibitory values (1050) are determined using either the program Symyx Assay Explorer® or Condosseo® from GeneData.

T1 sequence (Q9H2K2 873-1166): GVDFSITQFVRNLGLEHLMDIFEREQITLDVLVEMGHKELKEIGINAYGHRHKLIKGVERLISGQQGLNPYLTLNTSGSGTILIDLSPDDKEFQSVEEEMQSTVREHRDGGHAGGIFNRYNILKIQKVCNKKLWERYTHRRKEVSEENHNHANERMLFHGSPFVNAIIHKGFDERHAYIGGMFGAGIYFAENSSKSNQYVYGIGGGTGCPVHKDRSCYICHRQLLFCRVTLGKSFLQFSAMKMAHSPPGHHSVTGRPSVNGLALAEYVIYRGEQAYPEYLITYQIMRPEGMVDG

Structure (SMILES)	IC50 [1]	EC50 (tankyrase 1/2)	IC50 [2]
CC(C)(C)c1ccc(-c2cn3cccc3c(=O)[nH]2)cc1 [Compound A11, 3-(4-tert-butyl-phenyl)-2H-pyrrolo[1,2-a]pyrazin-1-one]	< 300 nM	< 300 nM	< 300 nM
Cc1ccc(-c2cn3cccc3c(=O)[nH]2)cc1 [Compound A12, 3-p-tolyl-2H-pyrrolo[1,2-a]pyrazin-1-one]	300 to 3000 nM	300 to 3000 nM	< 300 nM
Cn1cc(-c2ccc(-c3cn4cccc4c(=O)[nH]3)cc2)cn1 [Compound A25, 3-[4-(1-methyl-1H-pyrazol-4-yl)-phenyl]-2H-pyrrolo[1,2-a]pyrazin-1-one]	< 300 nM	< 300 nM	< 300 nM
CC(C)(O)c1ccc(-c2cn3cccc3c(=O)[nH]2)cc1 [Compound A29, 3-[4-(1-hydroxy-1-methyl-ethyl)-phenyl]-2H-pyrrolo[1,2-a]pyrazin-1-one]	< 300 nM	< 300 nM	< 300 nM
CC(C)(C)c1ccc(-c2cn3cc(F)cc3c(=O)[nH]2)cc1 [Compound A35, 3-(4-tert-butyl-phenyl)-7-fluoro-2H-pyrrolo[1,2-a]pyrazin-1-one]	< 300 nM	< 300 nM	< 300 nM
Cc1cc2c(=O)[nH]c(-c3ccc(C(C)(C)O)cc3)cn2n1 [Compound A46, 6-[4-(1-hydroxy-1-methyl-ethyl)phenyl]-2-methyl-5H-pyrazolo[1,5-a]pyrazin-4-one]	300 to 3000 nM	300 to 3000 nM	< 300 nM
Cc1cc2c(=O)[nH]c(-c3ccc(C(C)(C)O)cc3)cn2c1 [Compound A56, 3-[4-(1-hydroxy-1-methyl-ethyl)-phenyl]-7-methyl-2H-pyrrolo[1,2-a]pyrazin-1-one]	300 to 3000 nM	< 300 nM	< 300 nM
CC(C)(O)c1ccc(-c2cn3cc(F)cc3c(=O)[nH]2)cc1 [Compound A59, 7-fluoro-3-[4-(1-hydroxy-1-methyl-ethyl)-phenyl]-2H-pyrrolo[1,2-a]pyrazin-1-one]	< 300 nM	< 300 nM	< 300 nM
CC(C)(O)c1ccc(-c2cn3cc(Cl)cc3c(=O)[nH]2)cc1 [Compound A60, 7-chloro-3-[4-(1-hydroxy-1-methyl-ethyl)-phenyl]-2H-pyrrolo[1,2-a]pyrazin-1-one]	< 300 nM	< 300 nM	< 300 nM
CCC(O)(CC)c1ccc(-c2cn3cc(F)cc3c(=O)[nH]2)cc1 [Compound A61, 3-[4-(1-ethyl-1-hydroxy-propyl)-phenyl]-7-fluoro-2H-pyrrolo[1,2-a]pyrazin-1-one]	< 300 nM	< 300 nM	< 300 nM
CC(C)(F)c1ccc(-c2cn3cc(F)cc3c(=O)[nH]2)cc1 [Compound A63, 7-fluoro-3-[4-(1-fluoro-1-methyl-ethyl)-phenyl]-2H-pyrrolo[1,2-a]pyrazin-1-one]	300 to 3000 nM	< 300 nM	< 300 nM
CC(C)(OCCO)c1ccc(-c2cn3cc(F)cc3c(=O)[nH]2)cc1 [Compound A70, 7-fluoro-3-{4-[1-(2-hydroxy-ethoxy)-1-methyl-ethyl]-phenyl}-2H-pyrrolo[1,2-a]pyrazin-1-one]	< 300 nM	< 300 nM	< 300 nM
COCCOC(C)(C)c1ccc(-c2cn3cc(F)cc3c(=O)[nH]2)cc1 [Compound A71, 7-fluoro-3-{4-[1-(2-methoxy-ethoxy)-1-methyl-ethyl]-phenyl}-2H-pyrrolo[1,2-a]pyrazin-1-one]	300 to 3000 nM	300 to 3000 nM	< 300 nM
CC(C)(N)c1ccc(-c2cn3cc(F)cc3c(=O)[nH]2)cc1 [Compound A72, 3-[4-(1-amino-1-methyl-ethyl)-phenyl]-7-fluoro-2H-pyrrolo[1,2-a]pyrazin-1-one]	< 300 nM	3000 to 50000 nM	< 300 nM
CC1(c2ccc(-c3cn4cc(F)cc4c(=O)[nH]3)cc2)CCCO1 (stereo not drawn) [Compound A73, 7-fluoro-3-[4-(2-methyl-tetrahydro-furan-2-yl)-phenyl]-2H-pyrrolo[1,2-a]pyrazin-1-one]	< 300 nM	< 300 nM	< 300 nM
O=c1[nH]c(-c2ccc(C3CCNCC3)cc2)cn2cccc12 [Compound A75, 3-(4-piperidin-4-yl-phenyl)-2H-pyrrolo[1,2-a]pyrazin-1-one]	< 300 nM	300 to 3000 nM	< 300 nM
O=c1[nH]c(-c2ccc(C3CCNC3)cc2)cn2cccc12 (stereo not drawn) [Compound A76, 3-(4-Pyrrolidin-3-yl-phenyl)-2H-pyrrolo[1,2-a]pyrazin-1-one]	300 to 3000 nM	300 to 3000 nM	< 300 nM
CN1CCC(c2ccc(-c3cn4cccc4c(=O)[nH]3)cc2)CC1 [Compound A79, 3-[4-(1-methyl-piperidin-4-yl)-phenyl]-2H-pyrrolo[1,2-a]pyrazin-1-one]	< 300 nM	3000 to 50000 nM	< 300 nM
CN1CCC(c2ccc(-c3cn4cccc4c(=O)[nH]3)cc2)C1 (stereo not drawn) [Compound A80, 3-[4-(1-methyl-pyrrolidin-3-yl)-phenyl]-2H-pyrrolo[1,2-a]pyrazin-1-one]	300 to 3000 nM	3000 to 50000 nM	< 300 nM
O=c1[nH]c(-c2ccc(C3(O)CCC3)cc2)cn2cccc12 [Compound A111]	< 300 nM	< 300 nM	< 300 nM
